Several values for one entry are separate records, joined by “and”; a condition that tells them apart may be missing. Equal values may be shown once. Entries after “also recorded” stand apart in the source; their conditions may differ.
Target: T1, human MPO embedded in Matrigel (Homo sapiens, UniProt P05164)
T1 construct: purchased BioDesign, Inc
T1 sequence (P05164 49-745): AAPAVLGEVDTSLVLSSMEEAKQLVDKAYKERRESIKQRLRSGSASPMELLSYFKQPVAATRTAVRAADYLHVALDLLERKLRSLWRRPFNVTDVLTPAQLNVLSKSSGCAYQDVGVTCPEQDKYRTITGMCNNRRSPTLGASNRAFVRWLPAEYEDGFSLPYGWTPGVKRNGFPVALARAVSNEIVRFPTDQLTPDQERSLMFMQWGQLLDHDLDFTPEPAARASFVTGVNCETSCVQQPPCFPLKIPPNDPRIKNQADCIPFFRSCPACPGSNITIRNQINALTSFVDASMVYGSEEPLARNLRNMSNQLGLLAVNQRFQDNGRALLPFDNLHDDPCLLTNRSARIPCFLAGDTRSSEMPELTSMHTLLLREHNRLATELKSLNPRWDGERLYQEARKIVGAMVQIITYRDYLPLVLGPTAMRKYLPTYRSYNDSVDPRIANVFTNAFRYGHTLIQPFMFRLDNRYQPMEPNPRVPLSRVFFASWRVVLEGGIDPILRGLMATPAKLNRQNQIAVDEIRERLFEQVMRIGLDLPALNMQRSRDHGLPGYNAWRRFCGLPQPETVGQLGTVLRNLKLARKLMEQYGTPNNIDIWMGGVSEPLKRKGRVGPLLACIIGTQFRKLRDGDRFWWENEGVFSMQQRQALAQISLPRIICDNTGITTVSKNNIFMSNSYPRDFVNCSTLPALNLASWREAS
Assay: MPO/Matrigel implant mouse model, T1-weighted MR imaging
Assay type: in vivo
Settings: for enhancement of MPO implant compared with control implant: right MPO/Matrigel vs left control; for enhancement of MPO implant compared with control implant / relative CNR before wash-out/decrease of the control side: 1.5 T; for maximum relative CNR ratio (CNR(right)/CNR(left)): MPO/Matrigel right vs control left
Experimental: To evaluate the monomeric substrates in vivo, we devised a mouse model that harbored 400 μL of Matrigel basement membrane matrix gel mixed 1:1 by volume with a solution containing 15 U of human MPO and glucose oxidase (as a source of hydrogen peroxide) that was injected into the right flank of the mouse. The left flank was injected with the enzyme-free Matrigel mixture. We subsequently performed T1-weighted MR imaging after the intravenous injection of Gd-DTPA-diSer substrate at the dose of […].
The MR imaging experiments were performed on a 1.5 T GE Excite scanner and a 4.7 T Bruker Pharmascan scanner. For all MR imaging experiments, precontrast T2-(TR=2000, TE=100, ETL=8, NEX=4, fast spin echo sequence) and T1-weighted images (TR=500, TE=11, NEX=4, spin echo sequence) with fat saturation were initially performed to locate the gels or area of inflammation. The substrates (0.3 mmol/kg) were subsequently injected via the tail vein of the mouse. The mouse was immediately imaged after the injection of the contrast agent using multiple T1-weighted sequences with fat saturation for at least 3 hours.
Ten-week old C57BL6 male mice were obtained from Jackson Laboratories. A total of 22 mice were used for the study. • 1. MPO/Matrigel imaging experiments: Matrigel™ (Beckton-Dickinson), a […] basement membrane matrix gel was used to immobilize human MPO and glucose oxidase (to supply H2O2 required for detecting MPO oxidative activity, Calbiochem). This was chosen to reflect deposits of human MPO in inflamed tissue in a mouse model. 400 μL of a mixture of Matrigel™ and MEM (Cambrex) was injected slowly into the thighs of each mouse one hour prior to imaging. The right thigh mixture also contained 15 U of MPO and 4 U of glucose oxidase (Calbiochem), while the left thigh mixture contained no enzyme and thus serves as an internal control. A total of 15 mice were used (3 mice each for 5-HT-DOTA(Gd), bis-5-HT-DTPA(Gd), bis-5-HT-DTPA-^111In, bis-tyramide-DTPA(Gd), and DTPA(Gd)). • 2. LPS/Matrigel experiments (n=3): This model was developed to induce endogeneous mouse MPO secretion and activation. 200 μL total volume Matrigel containing 10% heparin was injected slowly into the thighs of the mice 4 days prior to imaging. The right-sided mixture also contained E. coli lipopolysaccharide (LPS) at 10 μg/mL. One mouse was sacrificed for immunohistochemistry. • 3. Myositis experiments (n=4): LPS at 100 μg/mL in PBS was injected into each mouse intramuscularly in the right flank to produce myositis. The mice are imaged 24 hours after injection.
For normalized signal intensity measured on T1-weighted images, mean±standard deviation (SD) values were calculated in regions of interest (ROI). Contrast-to-noise (CNR) ratios were computed for each ROI according to the formula

SMILES | enhancement of MPO implant compared with control implant (mice, listed as bis-tyramide-DTPA(Gd)) | relative CNR increase before significant wash-out of the control side (mice, 4.7 T) | maximum relative CNR increase (mice, at 240 minutes (washout from control implant)) | maximum relative CNR increase (mice, in the first 143 minutes) | enhancement of MPO implant compared with control implant (mice) | relative CNR before wash-out/decrease of the control side (mouse) | relative CNR before wash-out/decrease of the control side (mouse, listed as bis-5-HT-DTPA(Gd)) | maximum relative CNR ratio (CNR(right)/CNR(left)) (mouse) | relative CNR ratio (mouse, at 185 minutes) | increase in the contrast-to-noise ratio, right (MPO-containing) vs left (control) flank (mouse, i.v. 0.3 mM/Kg, over 3 hours post injection) | maximum relative CNR ratio (CNR(right)/CNR(left)) (mouse, listed as serotonin-DOTA-Gd^3+ complex)
O=C([O-])CN(CCN(CC(=O)[O-])CC(=O)NCCc1ccc(O)cc1)CCN(CC(=O)[O-])CC(=O)NCCc1ccc(O)cc1.[Gd+3] [1Gd^3+] | did not result in significantly increased enhancement; also recorded: did not demonstrate significantly increased enhancement | – | – | – | – | – | – | – | – | – | –
O=C([O-])CN(CCN(CC(=O)[O-])CC(=O)NCCc1c[nH]c2ccc(O)cc12)CCN(CC(=O)[O-])CC(=O)NCCc1c[nH]c2ccc(O)cc12.[Gd+3] [2Gd^3+] | – | 1.8 fold | 2.5 times | 1.9 times | significantly increased enhancement | 1.7-1.8 | 1.9 | 1.72 and 2.5 | 2.0 | 1.7-2.0 fold | –
CC(C(=O)NCC(=O)NCCc1c[nH]c2ccc(O)cc12)N1CCN(CC(=O)[O-])CCN(CC(=O)[O-])CCN(CC(=O)[O-])CC1.[Gd+3] (stereo not shown) [5-HT-DOTA(Gd), Glycylmethyl DOTA(Gd) 5-Hydroxytryptamide] | – | – | – | – | significantly increased enhancement | – | – | 1.7 | – | – | 1.72
